Data: patent publication US20240409585A1, “MACROCYCLIC IMMUNOMODULATORS” (priority 2021, published 2024)
Like-named read-outs stand apart in the source and are kept apart here. Bridge positions count the residues as written; N and C are the ends. Square brackets hold non-standard residues; d marks the D form. Peptide text beside a SMILES is read from it. * marks the point of attachment. Bip(4'-NHAc) = CC(=O)Nc1ccc(-c2ccc(C[C@H](N)C(=O)O)cc2)cc1; Phe(3-CF3) = N[C@@H](Cc1cccc(C(F)(F)F)c1)C(=O)O; Ala(morpholin-4-yl) = N[C@@H](CN1CCOCC1)C(=O)O; Phe(4-COOH) = N[C@@H](Cc1ccc(C(=O)O)cc1)C(=O)O; Bip = N[C@@H](Cc1ccc(-c2ccccc2)cc1)C(=O)O; Abu(3R-NH2) = C[C@@H](N)[C@H](N)C(=O)O; Phe(3-Me) = Cc1cccc(C[C@H](N)C(=O)O)c1; hPhe = N[C@@H](CCc1ccccc1)C(=O)O; 3Pal = N[C@@H](Cc1cccnc1)C(=O)O; Cha = N[C@@H](CC1CCCCC1)C(=O)O; Carboxymethyl = O=C(O)C*; NMeA = CN[C@@H](C)C(=O)O; Orn = NCCC[C@H](N)C(=O)O; Dab = NCC[C@H](N)C(=O)O

Columns and labels:
[1] = molecular target: T1, PD1-PDL1 protein-protein binding interaction [hPD1(25-167)-hIgG, hPD-L1 (19-239)-6xHis] (Homo sapiens, UniProt Q15116); test: HTRF Assay (TR-FRET); settings: 5 nM hPD1-hIgG, 5 nM hPD-L1-6xHis, 24 hours at 25° C., head μM
T1 construct: hPD1(25-167)-hIgG, BMS
Description: A time-resolved fluorescence resonance energy transfer (TR-FRET) assay was employed to measure the inhibition of the PD1-PDL1 protein-protein binding interaction. The reaction buffer was prepared by mixing the HiBlock buffer and LANCE detection buffer (PerkinElmer, TRF1011F and CR97-100) at a 1:1 ratio. Assay reactions contained 5 nM human programmed cell death 1 [hPD1(25-167)-hIgG, BMS], 5 nM human programmed cell death ligand 1 [hPD-L1 (19-239)-6×His, BMS], in the presence of 1 nM LANCE Eu-W1024 Anti-Human IgG (Eu-anti hIgG, PerkinElmer, AD0074) and 20 nM SureLight Allophycocyanin-anti-6×His antibody (APC-anti-6×His, PerkinElmer, AD0059H). Test compounds were evaluated in a 10-point dose-response format with serial three-fold dilutions starting from a 2 uM top concentration. Reactions were carried out in a total volume of 10 uL in 384-well microtiter plates (Proxiplate white, PerkinElmer, 6008289). Plates were sealed and incubated for 24 hours at 25° C. After 24 hours, the TR-FRET signal was measured using a PerkinElmer EnVision multimode plate reader and the resulting ratiometric data set (signal at 665 nm/615 nm, multiplied by a factor of 10,000) was recorded. The concentration giving half-maximal inhibition (the IC50) was obtained by fitting the data to a four-parameter logistic equation using Graphpad Prism or Dotmatics.

[2] = molecular target: T2, Alexa fluor-647 labeled human PD-L1-Ig binding to Jurkat cell line over-expressing human PD-1 (Homo sapiens, UniProt Q15116); test: Jurkat-PD-1 Cell Binding High-Content Screening Assay (CBA): Method 3 (Alexa fluor-647 labeled PD-L1-Ig); settings: Jurkat-PD-1 cells, Alexa fluor-647 labeled PD-L1-Ig 177 nM
T2 construct: expressed in transfected cells; host or cells: Jurkat
Method in brief: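 Readout by high-content imaging of PFA-fixed, Hoechst-stained cells after 1 h with 177 nM (final) Alexa fluor-647 PD-L1-Ig. Compound was added first to hPD-1 Jurkat cells in RPMI plus 10% FCS for 2 h at 37 °C.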

[3] = head μM, read-out: CBA Method 3 μM

T1 sequence (Q15116 25-167): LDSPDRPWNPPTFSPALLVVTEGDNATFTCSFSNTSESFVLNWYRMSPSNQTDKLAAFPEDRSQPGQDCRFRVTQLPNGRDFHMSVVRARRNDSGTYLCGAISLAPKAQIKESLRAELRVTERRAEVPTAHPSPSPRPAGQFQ
T2 sequence (Q15116 25-288): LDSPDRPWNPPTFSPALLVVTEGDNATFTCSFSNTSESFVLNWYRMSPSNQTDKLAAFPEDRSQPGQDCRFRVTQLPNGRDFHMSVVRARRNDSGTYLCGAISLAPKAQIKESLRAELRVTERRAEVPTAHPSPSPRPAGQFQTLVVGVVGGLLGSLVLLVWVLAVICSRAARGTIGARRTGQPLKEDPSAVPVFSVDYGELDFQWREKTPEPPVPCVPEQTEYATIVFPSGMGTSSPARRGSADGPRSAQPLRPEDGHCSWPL

## CC(C)C[C@H]1NC(=O)[C@H](C)N(C)C(=O)[C@H](CCC(N)=O)NC(=O)[C@H](Cc2ccc(-c3ccccc3)cc2)NC(=O)[C@H](CCc2ccccc2)NC(=O)[C@H](Cc2cccc(C(F)(F)F)c2)NC(=O)[C@H](CC(=O)O)NC(=O)[C@H](CCC(N)=O)NC(=O)[C@H](CN2CCOCC2)NC(=O)CSC[C@@H](C(=O)N[C@@H](CCN)C(N)=O)NC(=O)[C@H](CCCN)NC(=O)[C@H](C(C)C)NC(=O)[C@H](CC2CCCCC2)NC(=O)[C@H](CCN)NC1=O [Example 5245] ({CH2CO}-[Ala(morpholin-4-yl)]QD[Phe(3-CF3)][hPhe][Bip]Q[NMeA][dL][Dab][Cha]V[Orn]C[Dab]-NH2; thioether N-14)
[1]
  IC50: 0.01 µM
[2]; [3]
  IC50: 0.01 µM

## CC(=O)Nc1ccc(-c2ccc(C[C@@H]3NC(=O)CSC[C@@H](C(=O)N[C@@H](CCN)C(N)=O)NC(=O)[C@H](CCCN)NC(=O)[C@H](C(C)C)NC(=O)[C@H](CC4CCCCC4)NC(=O)[C@H](CCN)NC(=O)[C@@H](CC(C)C)NC(=O)[C@H](C)N(C)C(=O)[C@H](CCC(N)=O)NC(=O)[C@H](Cc4ccc(-c5ccccc5)cc4)NC(=O)[C@H](Cc4ccc(C(=O)O)cc4)NC(=O)[C@H](Cc4cccc(C)c4)NC(=O)[C@H](CC(=O)O)NC(=O)[C@H](Cc4ccc(OCC(=O)O)cc4)NC3=O)cc2)cc1 [Example 5173] ({CH2CO}-[Bip(4'-NHAc)]Y(Carboxymethyl)D[Phe(3-Me)][Phe(4-COOH)][Bip]Q[NMeA][dL][Dab][Cha]V[Orn]C[Dab]-NH2; thioether N-14)
[1]
  IC50: 0.07 µM
[2]; [3]
  IC50: 0.02 µM

## CC(C)C[C@H]1NC(=O)[C@H](C)N(C)C(=O)[C@H](CCC(N)=O)NC(=O)[C@H](Cc2ccc(-c3ccccc3)cc2)NC(=O)[C@H](CCc2ccccc2)NC(=O)[C@H](Cc2cccc(C(F)(F)F)c2)NC(=O)[C@H](CC(=O)O)NC(=O)[C@H](Cc2cccnc2)NC(=O)[C@H](CN2CCOCC2)NC(=O)CSC[C@@H](C(=O)N[C@@H](CCN)C(N)=O)NC(=O)[C@H](CCCN)NC(=O)[C@H](C(C)C)NC(=O)[C@H](CC2CCCCC2)NC(=O)[C@H](CCN)NC1=O [Example 5243] ({CH2CO}-[Ala(morpholin-4-yl)][3Pal]D[Phe(3-CF3)][hPhe][Bip]Q[NMeA][dL][Dab][Cha]V[Orn]C[Dab]-NH2; thioether N-14)
[1]
  IC50: 0.03 µM
[2]; nM, read-out: CBA Method 3
  IC50: 0.0022 µM

## CC(C)C[C@H]1NC(=O)[C@H](C)N(C)C(=O)[C@H](CCC(N)=O)NC(=O)[C@H](Cc2ccc(-c3ccccc3)cc2)NC(=O)[C@H](CCc2ccccc2)NC(=O)[C@H](Cc2cccc(C(F)(F)F)c2)NC(=O)[C@H](CC(=O)O)NC(=O)[C@H](Cc2ccc(O)cc2)NC(=O)[C@H]([C@@H](C)N)NC(=O)CSC[C@@H](C(=O)N[C@@H](CCN)C(N)=O)NC(=O)[C@H](CCCN)NC(=O)[C@H](C(C)C)NC(=O)[C@H](CC2CCCCC2)NC(=O)[C@H](CCN)NC1=O [Example 5236] ({CH2CO}-[Abu(3R-NH2)]YD[Phe(3-CF3)][hPhe][Bip]Q[NMeA][dL][Dab][Cha]V[Orn]C[Dab]-NH2; thioether N-14)
[1]
  IC50: 0.1 µM
[2]; nM, read-out: CBA Method 3
  IC50: 0.0011 µM

## CC(C)C[C@H]1NC(=O)[C@H](C)N(C)C(=O)[C@H](CCC(N)=O)NC(=O)[C@H](Cc2ccc(-c3ccccc3)cc2)NC(=O)[C@H](Cc2ccc(OCC(=O)O)cc2)NC(=O)[C@H](Cc2cccc(C(F)(F)F)c2)NC(=O)[C@H](CC(=O)O)NC(=O)[C@H](Cc2ccc(O)cc2)NC(=O)[C@H](CN2CCOCC2)NC(=O)CSC[C@@H](C(=O)N[C@@H](CCN)C(N)=O)NC(=O)[C@H](CCCN)NC(=O)[C@H](C(C)C)NC(=O)[C@H](CC2CCCCC2)NC(=O)[C@H](CCN)NC1=O [Example 5237] ({CH2CO}-[Ala(morpholin-4-yl)]YD[Phe(3-CF3)]Y(Carboxymethyl)[Bip]Q[NMeA][dL][Dab][Cha]V[Orn]C[Dab]-NH2; thioether N-14)
[1]
  IC50: 0.03 µM
[2]; nM, read-out: CBA Method 3
  IC50: 0.0044 µM
